Experimental findings from patent publication US20090215714A1 (priority 2004, published 2009) are described below.

What all share (format): in vivo, human
Data set [1] concerns Glu, Gln, GABA and Lac in frontal gray matter (anterior cingulate). Description: Single voxel 1H MRS study of brain metabolites in frontal gray matter. The settings on record: for Gray Matter Glu Concentration, Mean / gray matter GABA concentration, Mean / gray matter Gln concentration, Mean / gray matter Lac concentration, Mean: cytidine group n = 19. The method, then: A companion imaging single voxel ^1H MRS study to the behavioral study described in Example 1 examined Glx and Lac changes in frontal gray matter. […] Brain MRS was performed using a 3.0 Tesla GE whole body imaging system (GE VH/i, USA). The localized MR spectra were recorded using a point-resolved spatially localized spectroscopy (PRESS) sequence on a General Electric 3T scanner, which was optimized for acquisition of ^1H MR spectra from the frontal lobe. Voxel size was 1.5×1.5×1.5 cm. The voxels were verified in scout views in T2 images obtained vertically in the Z-axis to include predominantly gray matter of the anterior cingulate for the frontal brain region. The acquisition parameters were: repetition time (TR), 2000 ms; echo time (TE), 35 ms; average=128, phase size-cycling=8, and acquisition time, 4 minutes 16 seconds.

Data set [2] deals with depressive episode in subjects with bipolar disorder I or II (HAM-D score). Description: Double-blind clinical trial of cytidine add-on to divalproex; HAM-D scores in bipolar depression. From the text:
The new methods are based on a double-blind, long-term clinical trial designed to assess the impact of cytidine on patients with bipolar disorder who were undergoing a major depressive episode.
(§1) 65 subjects with either bipolar disorder I or II, as determined by the Structured Clinical Interview for DSM-IV-Patient Version (SCID), were studied during a depressive episode, as determined by a Hamilton Depression Rating Scale (HAM-D) score of 16 or greater. […] HAM-D scores for every subject were evaluated and recorded once a week for twelve weeks following baseline assessment.
The HAM-D scale is a 17-item scale used in the art to assess the severity of depression in patients already diagnosed with an affective disorder. Higher scores indicate more severe depression. Questions posed to subjects relate to symptoms such as depressed mood, guilty feelings, suicide, sleep disturbances, anxiety levels, and weight loss. Hamilton, (1960) J. Neurology and Neurosurgery in Psychiatry, 23:56-62.

For data set [3], the system named is treatment emergent mania (YMRS score). In words: Treatment-emergent mania/hypomania by Young Mania Rating Scale (YMRS) in the clinical trial. The method, then:
as §1
Tohen et al., (2003) Arch. Gen. Psychiatry, 60:1079-88.

[4] abbreviates: over the 4 week period, p=0.032.

Entries after “also recorded” stand apart in the source; their conditions may differ.

For `Nc1ccn([C@@H]2O[C@H](CO)[C@@H](O)[C@H]2O)c(=O)n1` [cytidine], in data set [1] (Baseline), the “Gray Matter Glu Concentration, Mean” value is recorded as 11.38 millimolar; the “gray matter GABA concentration, Mean” value is listed as 0.91 millimolar; the “gray matter Gln concentration, Mean” value is on record as 7.38 millimolar; the “gray matter Lac concentration, Mean” value amounted to 1.71 millimolar. For the same compound, in data set [1] (Week 2), the “Gray Matter Glu Concentration, Mean” value is 9.18 millimolar; the “gray matter GABA concentration, Mean” value was found to be 0.97 millimolar; the “gray matter Gln concentration, Mean” value turned out to be 7.21 millimolar; the “gray matter Lac concentration, Mean” value was determined as 1.44 millimolar. Moreover, in data set [1] (Week 4), the “Gray Matter Glu Concentration, Mean” value is on record as 8.85 millimolar; the “gray matter GABA concentration, Mean” value turned out to be 1.03 millimolar; the “gray matter Gln concentration, Mean” value is on record as 6.99 millimolar; the “gray matter Lac concentration, Mean” value was determined as 1.42 millimolar. Moreover, the “decrease in Glu levels” value in data set [1] (over the 4-week period, p<0.01) was 22.2%. For the same compound, the “decrease in Gln levels” value in data set [1] (over the 4-week period, p=0.241) is recorded as 5.3%. Also, in data set [1] (setting [4]), the “decrease in Lac levels” value is 17.0% and the “increase in GABA levels” value is 13.2%. The “affective improvement compared to placebo supplementation (FIG. 1)” value in data set [2] (HAM-D, add-on to divalproex, twelve weeks) was “enhanced the affective improvement”. Further, the “mean difference in HAM-D scores between groups” value in data set [2] (cytidine vs placebo, both add-on to divalproex, week 2 through 12, oral cytidine 1 gram/day) was 2.66±0.65. In data set [2] (oral cytidine added to divalproex, bipolar depression), the “increase in antidepressant efficacy compared to divalproex alone” value is reported as 10%. Also, in data set [3] (YMRS less than 12 at baseline and greater than 12 subsequently, cytidine plus divalproex), the “subjects with treatment-emergent mania, modified criteria” value is on record as “no subjects; also recorded: one subject”. Besides, in data set [3] (YMRS less than 15 at baseline and 15 or greater anytime during the study, 12 weeks, cytidine plus divalproex), the “subjects with treatment-emergent mania” value is “No subject”. Besides, the “subjects with treatment-emergent hypomania” value in data set [3] (cutoff of YMRS score of 9, 12-week trial period, vs six on placebo, p=0.041) is “one subject”. In addition, the “subjects with treatment emergent hypomania” value in data set [3] (cutoff of YMRS score of 10, cytidine plus divalproex) was “one subject”.
